Assay results as given in publication PMC11357992, “Non-invasive mapping of systemic neutrophil dynamics upon cardiovascular injury” (Nature Cardiovascular Research, 2023).
Several values for one entry are separate records, joined by “and”; a condition that tells them apart may be missing. Identical values can stand only once. Where no end group is shown, it is not given here. carboxyfluorescein = N-terminal fluorescence label (CF)

Test system: human lymphocytes, monocytes or neutrophils
Assay: Uptake of hNPPFCs/ConPFCs by human blood immune cells, flow cytometry
Type: cell-based
Details: for uptake by lymphocytes, raw data (flow cytometry): human lymphocytes; for uptake by lymphocytes, raw data (flow cytometry) / uptake by monocytes, raw data (flow cytometry): single samples #1-#4; for uptake by monocytes, raw data (flow cytometry): human monocytes
Description: Blood was collected from the vena brachialis, and erythrocytes were lysed as described above. After 10 min of incubation, samples were centrifuged at 350g for 10 min at 20 °C. For isolation of a purified neutrophil fraction, density gradient centrifugation was performed. Five milliliters of Ficoll 1.077 (Sigma-Aldrich) was layered on 5 ml Ficoll 1.119 (Sigma-Aldrich), and 20 ml of whole blood diluted 1:2 with PBS was carefully layered on the Ficoll 1.077. Samples were centrifuged at 350g for 20 min with low acceleration and brake. The neutrophil layer was isolated by careful aspiration and washed with PBS. Isolated cells were resuspended in MACS buffer.
Human immune cells were discriminated by staining for CD45 (BioLegend, clone HI30), CD11b (BD Biosciences, clone ICRF44), CD14 (BioLegend, clone M5E2) and CD16 (BD Biosciences, clone 3G8) (lymphocytes, CD45^+CD11b^−CD16^−; classical monocytes, CD45^+CD11b^+CD14^++CD16^−; non-classical monocytes, CD45^+CD11b^+CD14^+CD16^++; neutrophils, CD45^+CD11b^+CD16^+). Murine immune cells were discriminated by staining for CD45 (BD Biosciences, clone 30-F11), CD11b (BioLegend, clone M1/70), Ly6G (BD Biosciences, clone 1A8), Ly6C (BioLegend, clone HK1.4) and F4/80 (BioLegend, clone BM8) (lymphocytes, CD45^+CD11b^−Ly6G^−; classical monocytes, CD45^+CD11b^+Ly6G^−Ly6C^hi; non-classical monocytes, CD45^+CD11b^+Ly6G^−Ly6C^lo; neutrophils, CD45^+CD11b^+Ly6G^+; eosinophils, CD45^+CD11b^+Ly6G^+SSC^hiFSC^lo). Both human and murine cells were stained for 20 min at 4 °C, followed by washing with 200 µl MACS buffer.
If not mentioned otherwise, neutrophil-specific peptide or Con (both at 1 µg ml^−1) were incubated for 20 min at 4 °C, while ^NPPFCs or ^ConPFCs were incubated at a concentration of 10 µl ml^−1 for the indicated period of time, followed by two washing steps with 200 µl MACS buffer.
A total of 1 × 10^6 cells were incubated with 10 µl of the emulsion over a period of 80 min at 37 °C. At distinct time points, 50 µl of the samples were transferred into 2 ml of ice-cold MACS buffer and analyzed for rhodamine fluorescence by flow cytometry.
Extended Data Fig. 8 Physicochemical properties and cellular uptake of ^hNPPFCs. a, Cellular uptake of ^hNPPFCs by human monocyte subsets and neutrophils: Human immune cells isolated from the blood of healthy volunteers were incubated with ^hNPPFCs. Subsequently, cells were stained with CD11b, CD14 and CD16 to differentiate between neutrophils (red), classical monocytes (gray) and non-classical monocytes (blue) and the cells were analyzed by flow cytometry. The cellular uptake of ^hNPPFCs was determined under unstimulated conditions (top) and after treatment with 1 µg/ml LPS (bottom). b, Physicochemical properties of the generated nanotracers: Characterization of size, size distribution and ζ potential of ^MalPFCs and targeting PFCs (^hNPPFCs, ^ConPFCs) by dynamic light scattering (DLS). The rhodamine fluorescence signal of the PCS was determined by IVIS imaging and the ^19F content by ^19F MRI. c-e, Cryo transmission electron microscopy of the generated nanotracers: c, Cryo transmission electron microscopy (cryo-TEM) of ^hNPPFCs and ^ConPFCs. Graphs: The diameter of the PFCs was determined manually from three images categorized into 25 nm groups. […] Data are derived from three images for ^hNPPFCs and ^ConPFCs each. d, Box plot (box and whiskers; min to max) of the diameter of ^ConPFCs/^hNPPFCs calculated from cryo-TEM images. e, Relative amount of liposomes (%) in individual cryo-TEM images. The number of PFCs and liposomes was manually determined (n = 4/5 images). Red arrows in the cryo-TEM images indicate liposomes. Data are mean values ± SD of n = 5-6 (a), n = 3-6 (b), n = 3 (c), n = 3 (d) and n = 6 (e) independent experiments; *** = p < 0.001, verified by one-way ANOVA (a). Source data

“hNPPFCs: PEGylated rhodamine-labeled perfluorocarbon nanoemulsion coupled with human neutrophil-specific peptide hNP (carboxyfluorescein-DLVTSKLQVGGGC; also: C-terminal Cys coupled via maleimide-PEG2000-DSPE to rhodamine-labelled perfluorocarbon nanoemulsion)” was tested, and the “uptake by neutrophils, Ctrl - hNPPFCs, raw data” value (Ctrl donors, time 0, single samples #1-#8) was 68.6 and 64 and 91.8 and 102 and 91.2 and 87.9 and 78.2 and 76.6, the “uptake by human monocytes and their subtypes, flow cytometry” value (also under LPS stimulation (1 µg/ml)) was “only minor uptake” and the “uptake by lymphocytes, raw data (flow cytometry)” value (“uptake by lymphocytes, raw data” below) (incubation 0 min) was 14.8 and 22.7 and 17.1 and 13. The “uptake by lymphocytes, raw data” value (incubation 40 min) was 125 and 107 and 139 and 206, the “uptake by lymphocytes, raw data” value (incubation 80 min) was 149 and 177 and 157 and 227 and the “uptake by monocytes, raw data (flow cytometry)” value (“uptake by monocytes, raw data” for short) (incubation 0 min) was 41.4 and 45.1 and 42.3 and 29.9. The “uptake by monocytes, raw data” value (incubation 10 min) was 285 and 252 and 274 and 459, the “uptake by monocytes, raw data” value (incubation 20 min) was 318 and 557 and 425 and 621 and the “uptake by monocytes, raw data” value (incubation 40 min) was 616 and 798 and 629 and 741. For the same substance, the “uptake by monocytes, raw data” value (incubation 80 min) was 938 and 1088 and 771 and 1126, the “uptake by neutrophils, raw data (flow cytometry)” value (human neutrophils, incubation 0 min, single samples #1-#9) was 76.6 and 91.8 and 102 and 91.2 and 87.9 and 78.2 and the “binding to human lymphocytes, flow cytometry” value (immune cells from human blood) was “no binding to lymphocytes”. For the same substance, the “binding to human neutrophils, flow cytometry” value (immune cells from human blood) was “avidly bound to neutrophils” and the “human neutrophils labeled by hNPPFCs” value (of all human neutrophils in the authors' samples (CD177 not present on all)) was 50–60%.
